From patent US6509401B1, “Synergistic flame retardant combination of salts of 1-hydroxy-dihydrophosphole oxides and/or 1-hydroxyphospholane oxides and nitrogen compounds for use in polymers” (Clariant GmbH, priority 1997, dated 2003)

Assay: Comparison of water solubilities at 20° C.
Type: physicochemical
Description: Comparison of Water Solubilities at 20° C.

O=P1([O-])CCCC1.O=P1([O-])CCCC1.O=P1([O-])CCCC1.[Al+3] [PHOLAL, Aluminum salt of 1-hydroxy-1H-phospholane 1-oxide]
Water solubility: 4300 µg/mL

CCP(C)(=O)[O-].CCP(C)(=O)[O-].CCP(C)(=O)[O-].[Al+3] [MEPAL, Aluminum salt of methylethylphosphinic acid]
Water solubility: 6300 µg/mL
